Assay results as given in ChEMBL document CHEMBL5154646, “Structure-guided optimization of 1H-imidazole-2-carboxylic acid derivatives affording potent VIM-Type metallo-β-lactamase inhibitors” (Eur J Med Chem, 2022).
Activity calls are given as the source filed them. No cut-off for these calls is given here.

Experiments:
[1] = test system: Escherichia coli; assay: Potentiation of meropenem-induced antibacterial activity against Escherichia coli C1580 expressing VIM-2 assessed as fold reduction in meropenem MIC at 10 ug/ml incubated for 18 to 20 hrs by CLSI based broth microtiter dilution method; format: functional; conditions: dose 10 µg/ml; time 18-20 hrs
[2] = test system: Escherichia coli; assay: Potentiation of meropenem-induced antibacterial activity against Escherichia coli C1541 expressing IMP-1 assessed as fold reduction in meropenem MIC at 10 ug/ml incubated for 18 to 20 hrs by CLSI based broth microtiter dilution method; format: functional; conditions: dose 10 µg/ml; time 18-20 hrs
[3] = Toxicity in ICR mouse assessed as effect on histological architecture of liver at 500 to 2000 mg/kg, ip administered for 14 days by hematoxylin and eosin staining based histopathological assay; format: organism-based; conditions: in vivo, 336 h, dose 500-2000 mg/kg, time 14 day
[4] = Inhibition of bacterial VIM-2 (27 to 266 residues) expressed in Escherichia coli Transetta (DE3) using FC-5 as substrate preincubated with enzyme for 10 mins followed by substrate addition by fluorescence based analysis; parameters: species or system Bacteria
[5] = Inhibition of bacterial recombinant full length C-terminal-TEV-His6-tagged VIM-1 expressed in Escherichia coli Transetta using FC-5 as substrate preincubated with enzyme for 10 mins followed by substrate addition by fluorescence based analysis; parameters: species or system Bacteria
[6] = Inhibition of bacterial recombinant full length N-terminal-TEV-His6-tagged VIM-5 expressed in Escherichia coli Transetta using FC-5 as substrate preincubated with enzyme for 10 mins followed by substrate addition by fluorescence based analysis; parameters: species or system Bacteria
[7] = Inhibition of bacterial NDM-1 (1 to 270 residues) expressed in Escherichia coli Transetta (DE3) using FC-5 as substrate preincubated with enzyme for 10 mins followed by substrate addition by fluorescence based analysis; parameters: species or system Bacteria
[8] = test system: Escherichia coli; assay: Potentiation of meropenem-induced antibacterial activity against Escherichia coli C1541 expressing VIM-2 assessed as meropenem MIC at 10 ug/ml incubated for 18 to 20 hrs by CLSI based broth microtiter dilution method (reference value: 16 ug/ml); format: functional; conditions: dose 10 µg/ml, time 18-20 hrs
[9] = test system: Escherichia coli; assay: Potentiation of meropenem-induced antibacterial activity against Escherichia coli C1542 expressing VIM-2 assessed as meropenem MIC at 10 ug/ml incubated for 18 to 20 hrs by CLSI based broth microtiter dilution method (reference value: 16 ug/ml); format: functional; conditions: dose 10 µg/ml, time 18-20 hrs
[10] = Toxicity in ICR mouse assessed as effect on histological architecture of heart at 500 to 2000 mg/kg, ip administered for 14 days by hematoxylin and eosin staining based histopathological assay; format: organism-based; conditions: in vivo, 336 h, dose 500-2000 mg/kg, time 14 day
[11] = test system: Escherichia coli; assay: Synergistic antibacterial activity against Escherichia coli C1541 expressing VIM-2 assessed as fractional inhibitory concentration index incubated for 18 to 20 hrs in presence of meropenem by checkerboard microdilution assay; format: functional; conditions: time 18-20 hrs
[12] = test system: Pseudomonas aeruginosa; assay: Potentiation of meropenem-induced antibacterial activity against Pseudomonas aeruginosa W35 expressing VIM-2 assessed as fold reduction meropenem MIC at 10 ug/ml incubated for 18 to 20 hrs in presence of meropenem by CLSI based broth microtiter dilution method; format: functional; conditions: dose 10 µg/ml; time 18-20 hrs
[13] = Inhibition of bacterial VIM-2 (27 to 266 residues) expressed in Escherichia coli Transetta (DE3) using FC-5 as substrate preincubated with enzyme for 10 mins followed by substrate addition in presence of 1 uM Zn2+ by fluorescence based analysis; parameters: species or system Bacteria
[14] = Inhibition of bacterial VIM-2 (27 to 266 residues) expressed in Escherichia coli Transetta (DE3) using FC-5 as substrate preincubated with enzyme for 10 mins followed by substrate addition in presence of 100 uM Zn2+ by fluorescence based analysis; parameters: species or system Bacteria
[15] = test system: Escherichia coli; assay: Synergistic antibacterial activity against Escherichia coli C1541 expressing VIM-2 assessed as fractional inhibitory concentration index incubated for 18 to 20 hrs in presence of meropenem and 1 uM of zinc sulfate by checkerboard microdilution assay; format: functional; conditions: time 18-20 hrs
[16] = test system: Escherichia coli; assay: Synergistic antibacterial activity against Escherichia coli C1541 expressing VIM-2 assessed as fractional inhibitory concentration index incubated for 18 to 20 hrs in presence of meropenem and 100 uM of zinc sulfate by checkerboard microdilution assay; format: functional; conditions: time 18-20 hrs
[17] = test system: Escherichia coli; assay: Antibacterial activity against Escherichia coli C1580 expressing VIM-2 assessed as elongated and filamentous bacterial cells at 20 ug/ml incubated for 1 hr in presence of meropenem by confocal microscopy; format: functional, organism-based; conditions: dose 20.0 µg/ml
[18] = test system: Escherichia coli; assay: Bactericidal activity against Escherichia coli C1580 expressing VIM-2 assessed as induction of bacterial ultrastructural changes by measuring breakdown of cell wall with leakage of cellular contents at 20 ug/ml incubated for 1 hr in presence of meropenem by transmission electron microscopy; format: functional, organism-based; conditions: dose 20.0 µg/ml
[19] = test system: Escherichia coli; assay: Bactericidal activity against Escherichia coli C1580 expressing VIM-2 assessed as induction of bacterial ultrastructural changes by measuring cellular debris at 20 ug/ml incubated for 1 hr in presence of meropenem by transmission electron microscopy; format: functional, organism-based; conditions: dose 20.0 µg/ml
[20] = test system: Pseudomonas aeruginosa; assay: Potentiation of meropenem-induced antibacterial activity against Pseudomonas aeruginosa 5621 expressing VIM-2 assessed as meropenem MIC at 100 ug/ml incubated for 18 to 20 hrs in presence of meropenem by CLSI based broth microtiter dilution method (reference value: 64 ug/ml); format: functional; conditions: dose 100 µg/ml, time 18-20 hrs
[21] = test system: Pseudomonas aeruginosa; assay: Induction of morphological changes in Pseudomonas aeruginosa W35 expressing VIM-2 at 10 ug/ml incubated for 1 hr by transmission electron microscopy; format: functional, organism-based; conditions: dose 10.0 µg/ml
[22] = Toxicity in ip dosed ICR mouse assessed as maximum tolerated dose administered for 14 days; format: organism-based; conditions: in vivo, time 14 day
[23] = Solubility of the compound in water; format: physicochemical
[24] = Tmax in Sprague-Dawley rat at 100 mg/kg, ip by UPLC analysis; format: ADME, organism-based; conditions: in vivo
[25] = Cmax in Sprague-Dawley rat at 100 mg/kg, ip by UPLC analysis; format: ADME, organism-based; parameters: dose 100 mg/kg, route ip; conditions: in vivo
[26] = Half life in Sprague-Dawley rat at 100 mg/kg, ip by UPLC analysis; format: ADME, organism-based; conditions: in vivo
[27] = Toxicity in ICR mouse assessed as change in body weight at 500 to 2000 mg/kg, ip administered for 14 days; format: organism-based; conditions: in vivo, 336 h, dose 500-2000 mg/kg, time 14 day
[28] = Toxicity in ICR mouse assessed as change in overall appearance at 500 to 2000 mg/kg, ip administered for 14 days; format: organism-based; conditions: in vivo, 336 h, dose 500-2000 mg/kg, time 14 day
[29] = Toxicity in ICR mouse assessed as effect on histological architecture of spleen at 500 to 2000 mg/kg, ip administered for 14 days by hematoxylin and eosin staining based histopathological assay; format: organism-based; conditions: in vivo, 336 h, dose 500-2000 mg/kg, time 14 day
[30] = Toxicity in ICR mouse assessed as effect on histological architecture of lungs at 500 to 2000 mg/kg, ip administered for 14 days by hematoxylin and eosin staining based histopathological assay; format: organism-based; conditions: in vivo, 336 h, dose 500-2000 mg/kg, time 14 day
[31] = test system: Escherichia coli; assay: Potentiation of meropenem-induced antibacterial activity against Escherichia coli C1541 expressing VIM-2 assessed as fold reduction in meropenem MIC at 10 ug/ml incubated for 18 to 20 hrs by CLSI based broth microtiter dilution method; format: functional; conditions: dose 10 µg/ml; time 18-20 hrs
[32] = test system: Escherichia coli; assay: Potentiation of meropenem-induced antibacterial activity against Escherichia coli C1542 expressing VIM-2 assessed as fold reduction in meropenem MIC at 10 ug/ml incubated for 18 to 20 hrs by CLSI based broth microtiter dilution method; format: functional; conditions: dose 10 µg/ml; time 18-20 hrs

Question: Which “fold change (FC)” value [1] does the source give for `O=C(O)c1nccn1Cc1ccncc1` here?
Answer: The value was 32.

Question: What about the “fold change (FC)” value [2] of the same compound?
Answer: The value was 1.

Question: What about the Activity [3] of the same compound?
Answer: The Activity was “Non-Toxic”.

Question: And the IC50 [4]?
Answer: The IC50 was 560 nM.

Question: What about the IC50 [5] of the same compound?
Answer: The IC50 was 29500 nM.

Question: What about the IC50 [6] of the same compound?
Answer: The IC50 was 5780 nM.

Question: What about the IC50 [7] of the same compound?
Answer: Its IC50 is greater than 300000 nM.

Question: And the MIC [8]?
Answer: Its MIC is less than 0.25 µg/mL.

Question: What about the MIC [9] of the same compound?
Answer: The MIC was less than 0.25 µg/mL.

Question: What about the Activity [10] of the same compound?
Answer: The Activity was “Non-Toxic”.

Question: What about the “fractional inhibitory concentration index (FICI)” value [11] of the same compound?
Answer: Its value is 0.05.

Question: What about the “fold change (FC)” value [12] of the same compound?
Answer: Its value is 4.

Question: And the IC50 [13]?
Answer: Its IC50 is 220 nM.

Question: And the IC50 [14]?
Answer: Its IC50 is 1750 nM.

Question: And the “fractional inhibitory concentration index (FICI)” value [15]?
Answer: Its value is 0.05.

Question: What about the “fractional inhibitory concentration index (FICI)” value [16] of the same compound?
Answer: The value was 0.05.

Question: What about the Activity [17] of the same compound?
Answer: Its Activity is “Active”.

Question: And the Activity [18]?
Answer: Its Activity is “Active”.

Question: What about the Activity [19] of the same compound?
Answer: The Activity was “Active”.

Question: What about the MIC [20] of the same compound?
Answer: Its MIC is 32 µg/mL.

Question: What about the Activity [21] of the same compound?
Answer: Its Activity is “Active”.

Question: What about the MTD at 336 h [22] of the same compound?
Answer: The MTD at 336 h was no more than 2000 mg/kg.

Question: What about the solubility [23] of the same compound?
Answer: Its solubility is greater than 20 mg/mL.

Question: What about the Tmax [24] of the same compound?
Answer: The Tmax was 9 min.

Question: And the Cmax [25]?
Answer: The Cmax was 143 µg/mL.

Question: And the half-life [26]?
Answer: The half-life was 74.4 min.

Question: And the Activity [27]?
Answer: Its Activity is “Non-Toxic”.

Question: What about the Activity [28] of the same compound?
Answer: The Activity was “Non-Toxic”.

Question: What about the Activity [29] of the same compound?
Answer: The Activity was “Non-Toxic”.

Question: What about the Activity [30] of the same compound?
Answer: The Activity was “Non-Toxic”.

Question: And the “fold change (FC)” value [31]?
Answer: Its value is greater than 64.

Question: What about the “fold change (FC)” value [32] of the same compound?
Answer: The value was greater than 64.
